Tests used:
[1] = system: cells expressing wild-type (WT) or N617K collagen X; experiment: General protein synthesis rates in cells expressing collagen X; assay type: cell-based; details: CBZ for 24 hours
Experimental: FIG. 5 illustrates the effect of CBZ treatment in vitro (a) Cell viability of cell treated with 20 μM CBZ. (b) Collagen X mRNA level of HeLa cells transiently transfected with a rang of collagen X mutations in the presence or absence of CBZ for 24 hours. (c) General protein synthesis rates of cells expressing wild-type (WT) or N617K collagen X and treated with CBZ for 24 hours. UTF=untransfected cell controls. Mean±SEM of three independent experiments in each case.

[2] = system: MCDS mice (homozygous N617K collagen X mutation); experiment: Tibial growth plate histology, immunohistochemistry, in situ hybridisation and TRAP staining in MCDS mice; assay type: in vivo, mouse
Experimental: FIG. 2 illustrates the effect of carbamazepine on the growth plate pathology associated with MCDS. 3 week old MCDS mice were treated with CBZ for a period of one week. Untreated MCDS mice and mice wild-type for collagen X (WT) were used as controls. (a) H+E staining of the tibial growth plate at 4 weeks of age. (b) Immunohistochemistry for Grp78 and (c) Immunohistochemistry for collagen X. Yellow bars show the hypertrophic zone. Scale bars equal to 100 μM in all cases. (d) is a table showing growth plate zone measurements at 4 weeks of age. Mean±SEM. Number of animals shown in brackets. Significance between mutant untreated mice and treated mice shown by the asterisk. (e) Western blots of rib growth plate cartilage at 4 weeks of age for Grp78, ATF4, p62/SQSTM1 and LC3-II alongside the associated coomassie blue stain used as a loading control. Quantification of these blots against the coomassie protein level is shown in supplementary S4. (f) X-ray images of the pelvis at 6 weeks of age. The angle between the lines was measured in a minimum of 5 animals and a graph showing the mean±SEM is shown in (g). Graphs showing the percentage increase in growth of the (h) tibia and (i) femur from 3 weeks of age.
FIG. 3 illustrates the effect of carbamazepine on chondrocyte differentiation MCDS mice were treated with CBZ for 1 week. In situ hybridisation for a) collagen X mRNA levels b) Collagen II mRNA levels c) Osteopontin mRNA levels d) MMP13 mRNA levels. e) TRAP staining for osteoclast number, osteoclasts shown by the white asterisks. (f) Quantification of the number of osteoclasts per mm of vascular invasion front. Mean±SEM. (g) H+E image showing the terminal hypertrophic chondrocytes at the vascular invasion front. g) The height of the most terminal hypertrophic chondrocytes (within the red bracket) was measured, and mean±SEM is shown in (h). Hypertrophic zone marked by the yellow bar. Vascular invasion front shown by the orange line. Scale bar equal to 100 μM in all cases. Mean±SEM (*P<0.05 **P<0.005 ***P<0.0005).
The generation and genotyping of the Col10a1 p.N617K mouse line has been described previously (Rajpar et al 2009). Mice homozygous for the MCDS-causing N617K collagen X mutation were x-rayed at 3 weeks of age and treated with carbamazepine (250 mg/kg/day) for up to 21 days via a subcutaneous implantation of a slow-release pellet (Innovative research of America USA C-113) whilst the mouse was under anaesthetic. The incision was sutured closed, glued using Vetbond tissue adhesive (Santa-Cruz sc-361931) and the mice given an appropriate dose of buprenorphine painkiller depending on their body weight. Male mice were X-rayed once per week in order monitor bone growth; female mice were sacrificed after 1 week of treatment either by cervical dislocation or by carbon dioxide overdose under the provisions of the Animals (Scientific Procedures) Act 1986 and tissues collected for histological analysis. All procedures were carried out according to Home Office regulations.
Hind limbs were dissected and fixed overnight in ice-cold 4% paraformaldehyde (w/v) in 1×DEPC-PBS or 95% ethanol/5% acetic acid (v/v), and decalcified in 0.8 M ethyl-diamine tetracetic acid (EDTA) pH 7.4 for a period of one week. The samples were embedded in paraffin wax and sectioned sagittally using a cool-cut HM 355 S microtime (MicRom) generating 5 μm thick sections. Sections were collected on positively charged superfrost slides (VWR) and dried overnight prior to histological staining, immunohistochemistry or in situ hybridisation.
H+E staining was performed as described previously ^10 and images taken using a Carl Zeiss Axiovision microscope fitted with an Axiocam colour CCD camera and associated Axiovision software.
Growth plate zone widths were measured on images of known magnification as described previously (Rajpar et al 2009). […]

WT mice = experiment: CBZ treatment of wild-type mice (growth plate, collagen X localisation, bone growth); assay type: in vivo, mouse
Experimental: FIG. 7 illustrates the effect of CBZ treatment of WT mice Wild-type (WT) mice were treated with CBZ for a period of one week. Untreated mice were used as controls. (a)H+E images of the tibial growth plate at 4 weeks of age. (b) Table showing measurements of the growth plate zones. Mean±SEM. Number of animals shown in bracket. (c) Immunohistochemistry for collagen X in the tibial growth plate. Percentage increase in bone growth of the (d) Tibia and (e) Femur from 3 weeks of age. Mean±SEM.
Mice were anaesthetised using isofluorane, placed on X-Ray hyperfilm (GE healthcare, GZ28906850) and X-Rayed using a Flaxitron X-ray specimen radiography system (Flaxitron MX-20). X-Rays were performed prior to implantation and once per week for a maximum of 3 weeks. The analysis of the skeleton was done using Growbase software (Certus Technology Associated Limited, UK) to calculate the length of the femur, tibia and inner canthal distance. The bone growth rate was determined as a percentage increase relative to measurements at 3 weeks of age. Image J was used to analyse the angle of deflection from the vertical tuberosity of the ischium to determine the severity of the hip dysplasia phenotype. All measurements were analysed by ANOVA to determine significance using GraphPad Prism 6.0 software.
Growth plate zone widths were measured on images of known magnification as described previously (Rajpar et al 2009). The beginning of the proliferative zone was defined as the point at which the individual round chondrocytes flattened out and arranged into columns. The start of the hypertrophic zone was defined as the point at which proliferative chondrocytes rounded up and enlarged. The end of the hypertrophic zone was defined as the vascular invasion front. For each animal the data from three separate sections, spaced a minimum of 50 μm apart were averaged. Measurements were analysed for statistical significance by one-way ANOVA using GraphPad Prism 6.0 software. […]

## NC(=O)N1c2ccccc2C=Cc2ccccc21 [CBZ, Carbamazepine]
[1]
  rates of general protein synthesis: did not affect
[2]; 250 mg/kg body weight/day, 1 week, vs untreated MCDS controls
  size of the hypertrophic zone: significant reduction
[2]; 1 week
  BiP protein in growth plate sections (immunostaining): reduced
[2]; CBZ for 1 week
  expression pattern of collagen X, collagen II, OPN and MMP13 (in situ hybridisation): altered the expression pattern of each of these markers towards that seen in the WT mouse
  hypertrophy, based on the height of the terminal hypertrophic chondrocytes: enhanced
  osteoclast recruitment to the vascular invasion front (TRAP staining): partially restored
[2]; tibial growth plate, 1 week
  level of extracellular collagen X (immunohistochemistry): no overt increase
  level of intracellular collagen X (immunohistochemistry): reduced
WT mice
  bone growth rates: did not cause a significant increase
WT mice; CBZ for one week
  hypertrophic zone width: no effect
WT mice; tibial growth plate
  collagen X protein localisation: no effect

Source: patent publication US20190076440A1, “TREATMENT OF TISSUE DISORDERS” (priority 2016, published 2019)
